Laboratory results from patent US9670162B2, “Mitochondrial aldehyde dehyrogenase-2 modulators and methods of use thereof” (The Board of Trustees of the Leland Stanford Junior …, priority 2013, dated 2017).

Experiments:
[1] = HLM stability T1/2; assay type: in vitro ADME; settings: human, liver microsomes; read-out: metabolism (HLM, t1/2)
Experimental: (§1) In vitro ADMET of compounds of the present disclosure was carried out according to known methods in the art. Below are data for certain compounds of the present disclosure.

[2] = biological target: hERG channel (Homo sapiens, UniProt Q12809); test: hERG channel patch-clamp; assay type: cell-based
[3] = Plasma protein binding (PPB), human; assay type: in vitro ADME
Experimental: as §1

[4] = biological target: T1, human ALDH2*2 recombinant mutant enzyme (E487K) (Homo sapiens, UniProt P05091, E504K); test: ALDH2 enzymatic assay (NADH at 340 nm), recombinant mutant enzyme; assay type: biochemical; set-up: key: −: no activation or inhibition; +: activation less than control 1; ++: activation similar to control 1, within 10%; +++: activation more than control 1 and less than control (compound 161); ++++: activation similar to compound 161, within 10%; settings: activation relative to benchmarks control 1 and compound 161
T1 construct: His-tag (pTrcHis vector) (N); made in house; host or cells: E. coli BL21
T1 sequence (P05091 18-517 E504K): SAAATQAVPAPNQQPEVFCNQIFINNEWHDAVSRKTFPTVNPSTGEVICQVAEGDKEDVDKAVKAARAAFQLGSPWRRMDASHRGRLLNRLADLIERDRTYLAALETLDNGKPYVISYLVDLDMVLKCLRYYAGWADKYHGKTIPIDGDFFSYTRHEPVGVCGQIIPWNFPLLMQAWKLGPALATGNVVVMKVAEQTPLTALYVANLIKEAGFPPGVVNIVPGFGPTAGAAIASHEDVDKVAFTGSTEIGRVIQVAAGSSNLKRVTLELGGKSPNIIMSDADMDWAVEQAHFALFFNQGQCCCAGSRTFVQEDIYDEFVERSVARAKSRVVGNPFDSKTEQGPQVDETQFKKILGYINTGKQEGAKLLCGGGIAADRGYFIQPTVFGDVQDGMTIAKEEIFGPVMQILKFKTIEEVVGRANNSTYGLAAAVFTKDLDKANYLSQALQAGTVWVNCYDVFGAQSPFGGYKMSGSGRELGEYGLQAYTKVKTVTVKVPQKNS

[5] = biological target: CYP2D6 (Homo sapiens, UniProt P10635); test: Cyp inhibition 2D6; assay type: in vitro ADME
Experimental: as §1

[6] = biological target: T2, CYP1A2 (Homo sapiens, UniProt P05177); test: Cyp inhibition 1A2; assay type: in vitro ADME; set-up: inhibition: dose or concentration left out as unconfirmed
T2 sequence (P05177 1-516): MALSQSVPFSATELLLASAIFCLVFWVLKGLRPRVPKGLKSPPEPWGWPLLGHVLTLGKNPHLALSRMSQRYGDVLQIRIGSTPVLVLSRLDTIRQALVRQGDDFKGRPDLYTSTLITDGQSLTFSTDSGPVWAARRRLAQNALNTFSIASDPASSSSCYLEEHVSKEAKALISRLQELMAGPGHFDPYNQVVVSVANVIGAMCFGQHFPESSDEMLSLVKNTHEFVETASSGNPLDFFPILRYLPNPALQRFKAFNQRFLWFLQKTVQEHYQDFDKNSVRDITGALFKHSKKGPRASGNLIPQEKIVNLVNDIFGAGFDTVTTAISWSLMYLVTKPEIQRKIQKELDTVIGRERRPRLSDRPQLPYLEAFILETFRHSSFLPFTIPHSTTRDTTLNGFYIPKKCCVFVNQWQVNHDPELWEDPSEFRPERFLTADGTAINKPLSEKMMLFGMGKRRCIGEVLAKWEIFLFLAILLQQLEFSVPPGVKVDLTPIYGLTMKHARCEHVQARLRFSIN
Experimental: as §1

[7] = NHPLM stability T1/2; assay type: in vitro ADME; settings: monkey, liver microsomes
Experimental: as §1

[8] = Caco-2 permeability; assay type: in vitro ADME; settings: human
Experimental: as §1

[9] = RLM stability T1/2; assay type: in vitro ADME; settings: rat, liver microsomes
Experimental: as §1

[10] = tested on: unpurified human liver homogenates (liver mitochondria fraction), ALDH; test: ALDH activity in human liver biopsy samples; assay type: biochemical; settings: 20 μM, acetaldehyde substrate, 750 μg protein
Experimental: The study of compounds of the present disclosure on unpurified human liver homogenates was carried out according to methods known in the art. Briefly, 750 μg of the total unpurified protein from the liver mitochondria fraction was used in this assay. The kinetic increase of absorbance at λ340 nm was monitored for 15 minutes for NADH. For the first 3 minutes, the assay was carried in the absence of the substrate or AD-363 to establish the base line. As expected, no NADH production was detected. Substrate acetaldehyde was then added at the 3-min time point and the reaction monitored for the next 6 min to record the catalytic rate in the absence of an activator. Compound 161 (20 μM), was then added at the 9-min time point and the reaction monitored for the next 6 min to record the increase in catalytic rate.

Sequence of hERG channel (Q12809 whole entry): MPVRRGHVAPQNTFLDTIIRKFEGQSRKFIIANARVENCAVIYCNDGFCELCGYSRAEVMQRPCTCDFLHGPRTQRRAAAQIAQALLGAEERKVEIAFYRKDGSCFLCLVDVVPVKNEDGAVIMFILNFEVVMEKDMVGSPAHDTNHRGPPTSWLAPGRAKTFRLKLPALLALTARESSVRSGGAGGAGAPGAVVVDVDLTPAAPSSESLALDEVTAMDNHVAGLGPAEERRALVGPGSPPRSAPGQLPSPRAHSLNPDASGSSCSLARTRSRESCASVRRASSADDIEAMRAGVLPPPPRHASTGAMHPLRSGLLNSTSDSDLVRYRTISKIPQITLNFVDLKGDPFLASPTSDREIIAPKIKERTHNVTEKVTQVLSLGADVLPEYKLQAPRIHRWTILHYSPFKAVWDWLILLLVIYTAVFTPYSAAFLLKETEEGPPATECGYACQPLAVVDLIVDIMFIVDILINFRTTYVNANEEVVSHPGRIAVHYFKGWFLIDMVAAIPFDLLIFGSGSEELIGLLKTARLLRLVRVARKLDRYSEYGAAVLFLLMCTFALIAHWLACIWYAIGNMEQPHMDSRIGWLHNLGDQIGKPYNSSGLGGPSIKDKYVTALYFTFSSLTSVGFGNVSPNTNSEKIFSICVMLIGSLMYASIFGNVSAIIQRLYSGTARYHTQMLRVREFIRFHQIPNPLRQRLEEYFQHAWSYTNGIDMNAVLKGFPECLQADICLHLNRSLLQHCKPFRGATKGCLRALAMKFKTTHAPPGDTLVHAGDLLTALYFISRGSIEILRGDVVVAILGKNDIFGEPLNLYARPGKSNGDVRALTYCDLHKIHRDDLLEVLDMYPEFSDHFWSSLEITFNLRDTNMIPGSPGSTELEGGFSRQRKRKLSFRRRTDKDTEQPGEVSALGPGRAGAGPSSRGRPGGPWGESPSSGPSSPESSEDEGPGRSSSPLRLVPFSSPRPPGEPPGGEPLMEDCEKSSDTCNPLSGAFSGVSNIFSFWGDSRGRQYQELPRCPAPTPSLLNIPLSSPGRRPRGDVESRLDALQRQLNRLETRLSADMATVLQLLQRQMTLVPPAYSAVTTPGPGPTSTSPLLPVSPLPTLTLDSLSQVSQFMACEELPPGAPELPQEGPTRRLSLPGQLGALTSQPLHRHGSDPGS
Sequence of CYP2D6 (P10635 whole entry): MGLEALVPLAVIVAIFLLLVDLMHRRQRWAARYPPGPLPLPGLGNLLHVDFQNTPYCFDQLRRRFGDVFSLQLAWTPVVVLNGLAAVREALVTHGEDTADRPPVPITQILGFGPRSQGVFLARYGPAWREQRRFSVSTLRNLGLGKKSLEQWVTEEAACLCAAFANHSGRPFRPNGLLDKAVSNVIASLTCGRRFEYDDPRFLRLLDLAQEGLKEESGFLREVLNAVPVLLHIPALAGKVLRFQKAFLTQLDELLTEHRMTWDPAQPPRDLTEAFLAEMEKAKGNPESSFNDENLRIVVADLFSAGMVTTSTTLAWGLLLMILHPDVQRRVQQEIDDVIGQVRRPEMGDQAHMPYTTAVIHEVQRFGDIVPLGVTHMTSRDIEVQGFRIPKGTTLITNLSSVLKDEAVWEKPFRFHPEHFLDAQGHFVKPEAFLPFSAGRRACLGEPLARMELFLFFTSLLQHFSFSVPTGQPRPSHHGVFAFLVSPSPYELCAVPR

- half-life [1]: 12.4 min
- fraction unbound [3]: 0.007
- ALDH2 (mutant) [4]: ++++
- inhibition at 10 µM [5]: 6.4%
- inhibition [6]: 35%
- inhibition at 10 µM ([6]; 10 μM): 35.2%
- half-life [7]: 2.54 min
- Papp A→B ([8]; A-B, read-out: absorption (Caco-2, Papp, A-B)): 15.7 ×10⁻⁶ cm/s
- Papp B→A ([8]; B-A): 10.7 ×10⁻⁶ cm/s
- efflux ratio ([8]; ratio, read-out: Caco-2 Papp B-A/A-B): 0.68
- half-life [9]: 0.974 min
- increase of human liver enzyme's catalytic rate [10]: 2.38 folds
Structure (SMILES): COc1ccc(CNC(=O)c2c(Cl)ccnc2OCC2CC2)cc1F [Compound 161]
- IC50 [2]: > 30 µM
